Structures are written as SMILES.

What all share (test): biochemical
Experiment [1] has as its target N5 (avian H12N5 neuraminidase) (Influenza A virus (A/duck/Alberta/60/1976(H12N5)), UniProt A1ILL9).
In experiment [2] the target is p57N2 (pandemic A/RI/5+/1957 H2N2 N2 neuraminidase) (Influenza A virus, UniProt Q194T1). More on the design: species or system influenza A virus A/RI/5+/1957 H2N2.
For experiment [3], the target named is p09N1 (pH1N1 N1 neuraminidase) (Influenza A virus (A/California/04/2009(H1N1)), UniProt C3W5S3). More on the design: species or system 2009 pandemic influenza A H1N1 virus.

The IC50 is the concentration needed to halve the response being measured. The low end stands for greater potency, the high end for weaker potency. As for `CO[C@@H]([C@@H]1OC(C(=O)O)=C[C@H](NC(=N)N)[C@H]1NC(C)=O)[C@H](O)CO` [laninamivir], the IC50 came out at 0.9 nM in experiment [1] and 3.12 nM in experiment [2].
Turning to `[H]/N=C(\N)N[C@H]1C=C(C(=O)O)O[C@@H]([C@H](OC)[C@H](O)COC(=O)CCCCCCC)[C@@H]1NC(C)=O` [CS-8958, laninamivir octanoate], the IC50 in experiment [1] was 389 nM; in experiment [3], 947 nM; in experiment [2] it was 129 nM.
Turning to `CCOC(=O)C1=C[C@@H](OC(CC)CC)[C@H](NC(C)=O)[C@@H](N)C1` [oseltamivir], the IC50 amounted to 0.83 nM in experiment [1] and 0.79 nM in experiment [2].

(Values after publication PMC3197600 (PLoS Pathogens, 2011).)
